According to the METLIN SMRT retention time set (Domingo-Almenara et al. 2019):

Assay: gradient 5% acetonitrile 3 min, to 50% in 2 min, to 85% in 15 min, held 3 min, 100 µL/min
Details: column: Zorbax Extend-C18 2.1 x 50 mm; eluents: water / acetonitrile, 0.1% formic acid
Method in brief: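 Retention time was recorded from adduct peaks, which were picked computationally and each inspected manually. Pure standards ran in mixtures of ~100 molecules on HPLC coupled to a quadrupole time-of-flight mass spectrometer, in positive and negative ionization mode, through a Zorbax Extend-C18 column (2.1 × 50 mm, 1.8 μm) at 100 μL/min. Eluents were water and acetonitrile, each with 0.1% formic acid.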

| RP-LC retention time [s] | SMILES |
| --- | --- |
| 808 | CCc1ccc2c(c1)cc(S(=O)(=O)c1ccccc1)c(=O)n2CC(=O)NCCCOC |
| 904 | Cc1ccc(NC(=O)C2CCN(S(=O)(=O)c3ccc4[nH]c(=O)sc4c3)CC2)cc1Cl |
| 657 | CCCNc1cc(N2CCC(CCC(=O)NCc3ccc(OC)cc3)CC2)ncn1 |
| 836 | Cc1ccc(C)c(NC(=O)C2(C)Oc3cccnc3N(C)C2=O)c1 (stereo not given) |
| 1020 | Cc1cc(C)cc(S(=O)(=O)N2CCC(C(=O)NCCc3csc(-c4ccccc4)n3)CC2)c1 |
| 1110 | Cc1ccc(CNC(=O)C2(C)CCCN(C(=O)Nc3ccc(C)c(Cl)c3)C2)cc1 (stereo not given) |
| 915 | Cc1nc(Cn2cccc2C(=O)Nc2cc(Cl)ccc2C)no1 |
| 1020 | C=Cc1ccc(Cn2cc(S(=O)(=O)N3CCCCCC3)ccc2=O)cc1 |
| 1100 | Cc1ccc(CNC(=O)c2nnc(-c3ccc(S(=O)(=O)N4CCC(C)CC4)cc3)o2)cc1 |
| 808 | COC(=O)c1ccc(NC(=O)C2CCCN(c3ncnc4c3nc3n4CCCCC3)C2)cc1 (stereo not given) |
| 841 | CCCN1C(=O)COc2cc(-c3noc(C(=O)NCC4CCCO4)n3)ccc21 (stereo not given) |
| 726 | O=C1CCCCC(C(=O)N2CCc3ccccc32)N1 (stereo not given) |
| 952 | O=C(Cn1c(=O)cc(-c2nc(C3CC3)no2)c2ccccc21)Nc1cccc(F)c1 |
| 718 | O=C1CCN(C(=O)COc2ccccc2Cl)c2ccccc2N1 |
| 852 | Cc1cccc(NS(=O)(=O)c2cc3n(c2)CCN(CC(C)C)C3=O)c1C |
| 634 | Cc1cc(C(=O)NCc2ccc(C)o2)c2ccccc2n1 |
| 859 | CCn1cc(C)c(C(=O)O)c1CC(=O)Nc1cc(F)ccc1F |
| 691 | CCCCN1CCC(F)(c2nc(-c3ccccc3)no2)CC1 |
| 1150 | Brc1ccc(Nc2nc(-c3ccc4c(c3)OCO4)cs2)nc1 |
| 753 | CCN(CC)S(=O)(=O)c1ccc2c(c1)N(CC(=O)NC)C(=O)C1CCCCN21 (stereo not given) |
| 774 | O=C(c1ccsc1)N1CCC(Cc2nnc(-c3ccccc3)o2)CC1 |
| 864 | Cc1noc(C)c1CNC(=O)c1cccc(OC(F)(F)F)c1 |
| 926 | CN1C(=O)COc2ccc(-c3csc(NC(=O)c4ccccc4)n3)cc21 |

| RP-LC retention time [s] | SMILES |
| --- | --- |
| 1060 | Cc1cccc(-c2noc(Cn3nc(-c4ccccc4)ccc3=O)n2)c1 |
| 688 | O=C1Nc2ccccc2SC1C(=O)N1CCC(C(=O)N2CCn3c2nc2ccccc23)CC1 (stereo not given) |
| 1060 | COc1ccc(C2CCN(S(=O)(=O)c3cccc(C(F)(F)F)c3)C2)cc1 (stereo not given) |
| 962 | COCc1noc(C2CN(C(=O)c3ccc(Cl)s3)CC23CCCC3)n1 (stereo not given) |
| 673 | O=C(NCCN1CCCC1)c1ccc(-c2noc(-c3ccccc3)n2)s1 |
| 625 | CCn1cc(S(=O)(=O)N2C[C@@H](COC)[C@H](c3ccccn3)C2)cn1 |
| 900 | Cc1nc(NCc2ccco2)sc1C(=O)Nc1ccc(F)c(Cl)c1 |
| 1370 | CCCOc1nc2ccccc2nc1N1CCCC(C(=O)Nc2c(Cl)cc(OC)cc2OC)C1 (stereo not given) |
| 1100 | CCc1ccc(NC(=O)C2CCN(S(=O)(=O)c3cc(-c4noc(C5CC5)n4)cs3)CC2)cc1 |
| 902 | O=C(CCC1CCCN(S(=O)(=O)c2ccccc2)C1)N1CCCCC1 (stereo not given) |
| 698 | CCCNC(=O)C1CCCN(c2ccc(SCC(=O)Nc3cc(F)ccc3F)nn2)C1 (stereo not given) |
| 1030 | Cc1ccc(CNC(=O)C2(C)CCN(S(=O)(=O)c3ccc(Br)cc3)CC2)cc1 |
| 647 | CCC(=O)N1CCc2cc(N3CC(C(=O)NC(C)C)CC3=O)ccc21 (stereo not given) |
| 562 | Cc1cc(NCc2ccccn2)n2ncnc2n1 |
| 805 | Cn1nc(C(=O)N2CCN(c3cc(-c4ccccc4)[nH]n3)CC2)c2ccccc21 |
| 589 | Cc1nc(NCCCn2ccnc2)nc(Nc2ccccc2)c1[N+](=O)[O-] |
| 1060 | Cc1ccc(-n2nc(N3CCCC(C(=O)NC(C)CCc4ccccc4)C3)ccc2=O)cc1Cl (stereo not given) |
| 638 | O=C(Nc1ccc(N2CCN(C3CCCC3)C2=O)nc1)c1cccnc1 |
| 842 | O=C(Cn1c(=O)c(CCC(=O)NC2CCCC2)nc2ccccc21)NCc1ccccc1Cl |
| 691 | O=C(CSc1nnc(-c2ccccc2F)o1)Nc1nccs1 |
| 668 | Cc1cc(C)cc(OCC(=O)N2CCCCC2CCN2CCOCC2)c1 (stereo not given) |
| 933 | CC(C)c1ccc(CNC(=O)CN2CCN(Cc3ccc(F)cc3)C2=O)cc1 |
| 880 | COC(=O)c1ccc2c(c1)nnn2Cc1cccc(OC)c1 |

| RP-LC retention time [s] | SMILES |
| --- | --- |
| 996 | CN(C)S(=O)(=O)c1ccc2c(c1)N(CC(=O)NCCC1=CCCCC1)C(=O)C1CCCCN21 (stereo not given) |
| 610 | CC1CCCCN1CCNC(=O)CN1CCN(C(=O)Nc2ccc(Br)cc2)CC1=O (stereo not given) |
| 754 | O=C(NCCCN1CCCC1=O)c1ccc2nc(CCc3ccccc3)oc2c1 |
| 699 | COc1ccc(CNC(=O)N2CCC(OC3CCN(S(C)(=O)=O)CC3)CC2)cc1 |
| 739 | COC(=O)c1cc(OCC(=O)NC2CCCC2)c2cc(OC)ccc2n1 |
| 731 | Cn1cccc1CN(Cc1cccs1)C(=O)CN1C(=O)CCC1=O |
| 966 | O=C(NCCc1c[nH]c2ccccc12)c1cc(S(=O)(=O)N2CCCCC2)ccc1Cl |
| 589 | Cc1nocc1C(=O)N1CCCn2ccnc2C1C1CCCC1 (stereo not given) |
| 802 | O=C(NCCC1=CCCCC1)C1CCN(C(=O)C2Sc3ccccc3NC2=O)CC1 (stereo not given) |
| 813 | COCCC(=O)NC1CCN(C2=NS(=O)(=O)C(c3ccc(C(C)C)cc3)=C2C)CC1 |
| 994 | Fc1ccc(Cn2cc(-c3noc(-c4ccccc4)n3)nn2)cc1 |
| 658 | CCOc1ccc(CNC(=O)c2cnc(N3CCN(C4CCCCC4)CC3)nc2N)cc1 |
| 1060 | CCOc1cccc(-c2noc(Cn3nc(-c4ccc(F)cc4)ccc3=O)n2)c1 |
| 908 | CC(C)c1ccc(CNC(=O)CN2CCc3ccccc3C2C(=O)N2CCCC2)cc1 (stereo not given) |
| 611 | CCOc1ccc(S(=O)(=O)N2CCC3(CCC(CN4CCN(C)CC4)O3)CC2)cc1 (stereo not given) |
| 855 | CC(Cc1ccco1)NC(=O)c1nc(Nc2ccc(F)cc2)c2ccccc2n1 (stereo not given) |
| 605 | Cc1nc2ccc(C(=O)N3CCCCCC3)cc2nc1C |
| 735 | CCOC(=O)c1cc2c([nH]c1=O)CC(c1ccccc1)CC2=O (stereo not given) |
| 564 | O=C1NCCN2CC3(CCN(C(=O)Nc4ccccc4F)CC3)CC12 (stereo not given) |
| 1270 | O=C(CC1C=Cc2ccccc2N1C(=O)c1ccccc1)c1ccccc1 (stereo not given) |
| 722 | CC(C)n1cnc(S(=O)(=O)N2CCC(C(=O)Nc3ccc4c(c3)OCO4)CC2)c1 |
| 1010 | Cc1cccc(CNC(=O)C2CCCN(S(=O)(=O)c3cc(-c4noc(C)n4)cs3)C2)c1 (stereo not given) |
| 623 | Cc1n[nH]c(C)c1S(=O)(=O)N1CCC(c2nnc(C3CC3)s2)CC1 |

| RP-LC retention time [s] | SMILES |
| --- | --- |
| 892 | O=C(CCc1nc(CSc2nnc(-c3ccccc3)o2)no1)Nc1ccc(F)cc1 |
| 849 | CS(=O)(=O)N1CCCc2ccc(NS(=O)(=O)c3ccc(Cl)s3)cc21 |
| 794 | COc1ccc(Cl)cc1Nc1c(-c2nc(C)no2)cnc2nc(C)ccc12 |
| 640 | COCCN1C(=O)c2ccccc2C(C(=O)NCCCN2CCC(C)CC2)C1c1cccs1 (stereo not given) |
| 926 | CC(C)n1cc(S(=O)(=O)NCc2cccc(F)c2)c2cccnc21 |
| 1000 | COc1ccc(S(=O)(=O)CCC(=O)N2CCCC2c2nc(-c3ccc(Cl)cc3)no2)cc1 (stereo not given) |
| 641 | CC(C)CCCC(C)N (stereo not given) |
| 761 | CC(CCc1ccccc1)NC(=O)Cc1nnc(-c2ccc3ncccc3c2)o1 (stereo not given) |
| 825 | CC1(C)CC(=O)C2=C(C1)Nc1ccccc1N(C(=O)c1ccccc1)C2c1ccco1 (stereo not given) |
| 630 | COc1ccc(C(O)CN2CCN(c3ccccc3)CC2)cc1 (stereo not given) |
| 560 | Cn1c(CNC(=O)CCC2CCCN(c3cc(NC4CC4)ncn3)C2)nc2ccccc21 (stereo not given) |
| 813 | Cc1cccc(C)c1NC(=O)C1CCN(S(=O)(=O)c2ccc3c(c2)NC(=O)CO3)CC1 |
| 706 | CN1C(=O)Cc2ccccc2C1C(=O)NCc1ccc(F)cc1 (stereo not given) |
| 929 | CCOc1ccc(-c2csc3c(=O)n(Cc4ccc(N5CCCC5=O)cc4)cnc23)cc1OCC |
| 764 | COc1ccc(-c2cn3c(CC(=O)NCc4cccc(Br)c4)csc3n2)cc1OC |
| 1160 | O=C(NC1CCCCCC1)C1CCCN(c2ncc(-c3cccc(F)c3)cn2)C1 (stereo not given) |
| 621 | COc1ccccc1CNc1ncnc2c1CCC2 |
| 891 | O=c1n(Cc2ccccc2F)nc2c(S(=O)(=O)N3CCCCC3)cccn12 |
| 677 | Cc1cc(C(=O)N2CCC3(CC2)CC(C)(O)CCO3)c(C)o1 (stereo not given) |
| 727 | Nc1cc(C2CCN(C(=O)Nc3cccc(Cl)c3)CC2)no1 |

| SMILES | RP-LC retention time [s] |
| --- | --- |
| CC(C)CC(=O)N1CC[C@@H]2COCCN(C)[C@@H]2C1 | 575 |
